Experimental data reported in patent US20120012499A1, “TABLET FORMULATION” (Novo Nordisk A/S, priority 2006, published 2012).
Converted amounts (≈) assume the structure as drawn.

Test: solubility of drug substance in pH 5.0 buffer solution
Assay type: physicochemical
Details: aqueous buffer

**Q.** For `CCOc1cc(CC(=O)N[C@@H](CC(C)C)c2ccccc2N2CCCCC2)ccc1C(=O)O` [repaglinide, (S)-2-Ethoxy-4-[2-[[3-methyl-1-[2-(1-piperidinyl)phenyl]butyl]amino]-2-oxoethyl]benzoic acid], which solubility is on record?
**A.** 9 µg/mL (≈ 19.9 µM)
